Experimental data from patent US10682371B2, “Small molecule conjugates specifically activated in tumor microenvironment for targeting and use thereof” (priority 2014, dated 2020).

Key:
[1] = test system: Human breast cancer MDA-MB231 cells; format: in vivo, nude mice; conditions: for Effect on tumor growth, in words: compared to control, camptothecin, capecitabine and daunorubicin groups
Procedure: (§1) 1) Human breast cancer MDA-MB231 cells were purchased from American type culture collection (ATCC) and identified according the specification provided by ATCC. Cells were cultivated in Dulbecco's minimum essential medium (DMEM culture medium) containing 10% fetal bovine serum at 37° C. and 5% CO2. The cells were passaged for every three days and cells within the 15th passage were used.
2) Production of tumor. 5×10^6 MDA-MB231 cells were subcutaneously injected to the back of the nude mice. Mice were randomly grouped after the tumor reached at least 100 mm^3. Then treatment began and the day on which the treatment began was day 1.
3) Course of treatment. […] The drugs were administered once weekly for four weeks.
When R1 is 2-(2-Methoxyethoxy)Acetyl, and R3 is Ala, activation study and efficacy study were carried out by using compounds having different cleavable linker. The study methods are identical to those in Examples 10, 11 and 12. The in vitro activation efficiency was tested by asparagine endopeptidase and the tumor inhibition rate was tested by using human breast cancer MDA-MB231 model. […]

HEK293 cells = format: cell-based; conditions: for Cytoxicity reduced (Multiple): HEK293, 72 hours, MTT, IC50 of modified compound compared to its corresponding cytotoxic compound, approximate multiples
Procedure: Toxicity detection method: a standard universal test program was used to perform the in vitro cytotoxicity test. 2500 HEK293 cells were cultured in a 96-well plate, and allowed to grow overnight. Cytotoxic compounds and their corresponding conjugated compounds were added into each well in different concentrations, cultivated with the cells at 37° C. for 72 hours, and then treated with MTT reagents. OD changes were read. The approximate multiples of the toxicity change were obtained by comparing the IC50 of the modified compounds to their corresponding cytotoxic compounds.

[2] = Multiple tumor models in nude mice: HT1080; format: in vivo; conditions: Human colon caner HT1080
Procedure: as §1, with “Corresponding tumor” for “Human breast cancer MDA-MB231”, “DMEM” for “Dulbecco's minimum essential medium (DMEM”, “solution” for “medium)”
(§2) 2) Production of tumor. 5×10^6 corresponding cells were subcutaneously injected to the back of the nude mice. Mice were randomly grouped after the tumor reached at least 100 mm^3. Then treatment began and the day on which the treatment began was day 1.
(§3) 3) Course of treatment. […] The control group was administered by physiological saline. Animals were administered once weekly for three weeks.
(§4) 3) Course of treatment. According to the clinical application of A1, A1 was administered in a dose of ⅙ MTD, i.v., 17.6 μmol/kg. The control group was administered by physiological saline. Animals were administered once weekly for three weeks.
(§5) 3) Course of treatment. According to the clinical application of B1, B1 was administered in a dose of ⅙ MTD, i.v., 17.6 μmol/kg. The control group was administered by physiological saline. Animals were administered once weekly for three weeks.
as §3, §3

[3] = test system: Human renal cancer OS-RC-2; experiment: Multiple tumor models in nude mice: OS-RC-2; format: in vivo
Procedure: as §1, with “Corresponding tumor” for “Human breast cancer MDA-MB231”, “DMEM” for “Dulbecco's minimum essential medium (DMEM”, “solution” for “medium)”
as §2, §3, §4, §5, §3, §3

[4] = test system: Human ovarian cancer SK-OV-3; experiment: Multiple tumor models in nude mice: SK-OV-3; format: in vivo
Procedure: as §1, with “Corresponding tumor” for “Human breast cancer MDA-MB231”, “DMEM” for “Dulbecco's minimum essential medium (DMEM”, “solution” for “medium)”
as §2, §3, §4, §5, §3, §3

[5] = test system: Human non-small cell lung cancer A549; experiment: Multiple tumor models in nude mice: A549; format: in vivo
Procedure: as §1, with “Corresponding tumor” for “Human breast cancer MDA-MB231”, “DMEM” for “Dulbecco's minimum essential medium (DMEM”, “solution” for “medium)”
as §2, §3, §4, §5, §3, §3

Human liver cancer Hepg2 = experiment: Multiple tumor models in nude mice: Hepg2; format: in vivo
Procedure: as §1, with “Corresponding tumor” for “Human breast cancer MDA-MB231”, “DMEM” for “Dulbecco's minimum essential medium (DMEM”, “solution” for “medium)”
as §2, §3, §4, §5, §3, §3

[6] = test system: Human pancreatic cancer Panc-1; experiment: Multiple tumor models in nude mice: Panc-1; format: in vivo
Procedure: as §1, with “Corresponding tumor” for “Human breast cancer MDA-MB231”, “DMEM” for “Dulbecco's minimum essential medium (DMEM”, “solution” for “medium)”
as §2, §3, §4, §5, §3, §3

[7] = test system: Human chronic leukemia K562; experiment: Multiple tumor models in nude mice: K562; format: in vivo
Procedure: as §1, with “Corresponding tumor” for “Human breast cancer MDA-MB231”, “DMEM” for “Dulbecco's minimum essential medium (DMEM”, “solution” for “medium)”
as §2, §3, §4, §5, §3, §3

[8] = MDA-MB231, nude mice, IV 13.2 μmol/kg once weekly for four weeks, Day 10
[9] = MDA-MB231, nude mice, IV 13.2 μmol/kg once weekly for four weeks, Day 24
[10] = S1′ i.v. 17.6 μmol/kg once weekly for three weeks
[11] = Table 29, i.v. 17.6 μmol/kg once weekly for three weeks
[12] = Table 41, i.v. 17.6 μmol/kg once weekly for three weeks
[13] = Table 51, 25 mg/kg once weekly for three weeks

4-N—(N—(N—(N-(6-maleimido caproyl)-L-alanyl)-L-alanyl)-L-asparaginyl)-amino benzyl alcohol-MMAE-carbamate [Compound S6]
Inhibitory rate on tumor (%) Day 10 [1, 8]: 23%
Size of tumor (mm^3) Day 10 [1, 8]: 235.5 ± 56.3 mm^3
Inhibitory rate on tumor (%) Day 24 [1, 9]: 45.3%
Effect on tumor growth, in words [1]: less efficacy
tumor inhibition rate (%) ([1]; human breast cancer MDA-MB231 model, different cleavable linkers): 45.4%
Cytoxicity reduced (Multiple) (HEK293 cells): 35 Multiple
Cytoxicity reduced (Multiples) (HEK293 cells; different cleavable linkers of MMAE and Doxorubicin): 35 Multiples

COCCOCC(=O)N[C@H](C)C(=O)N[C@H](C)C(=O)N[C@H](CC(N)=O)C(=O)Nc1ccc(COC(=O)OC(C(=O)OC2C[C@@]3(O)C(OC(=O)c4ccccc4)[C@@H]4C5(OC(C)=O)COC5C[C@H](O)[C@@]4(C)C(=O)[C@H](OC(C)=O)C(=C2C)C3(C)C)[C@@H](NC(=O)c2ccccc2)c2ccccc2)cc1 (stereo in doubt) [S1′, 2-(2-methoxyethoxy) acetylamino-L-Ala-L-Ala-L-Asn-p-amino-benzyl-paclitaxel]
inhibitory rate on tumor (Day 26) [2, 10]: 94.3%
inhibitory rate on tumor (Day 26) [3, 10]: 85.7%
inhibitory rate on tumor (Day 26) [4, 10]: 85.6%
inhibitory rate on tumor (Day 26) [5, 10]: 94.6%
inhibitory rate on tumor (Day 26) (Human liver cancer Hepg2; [10]): 84.3%
inhibitory rate on tumor (Day 26) [6, 10]: 88.59%
inhibitory rate on tumor (Day 26) [7, 10]: 77.9%

COCCOCC(=O)NCCCC[C@H](NC(=O)COCCOC)C(=O)N[C@H](C)C(=O)N[C@H](C)C(=O)N[C@H](CC(N)=O)C(=O)Nc1ccc(COC(=O)OC(C(=O)OC2C[C@@]3(O)[C@@H](OC(=O)c4ccccc4)[C@H]4[C@](C)(C(=O)[C@H](OC(C)=O)C(=C2C)C3(C)C)[C@@H](O)CC2OC[C@]24OC(C)=O)[C@@H](NC(=O)c2ccccc2)c2ccccc2)cc1 (stereo partly shown) [Compound A1]
inhibitory rate on tumor (Day 26) [2, 11]: 95.6%
inhibitory rate on tumor (Day 26) [3, 11]: 86.6%
inhibitory rate on tumor (Day 26) [4, 11]: 84.4%
inhibitory rate on tumor (Day 26) [5, 11]: 95.3%
inhibitory rate on tumor (Day 26) (Human liver cancer Hepg2; [11]): 85.4%
inhibitory rate on tumor (Day 26) [6, 11]: 89.2%
inhibitory rate on tumor (Day 26) [7, 11]: 76.9%

COCCOCC(=O)NCCCC[C@H](NC(=O)COCCOC)C(=O)N[C@H](C)C(=O)N[C@H](C)C(=O)N[C@H](CC(N)=O)C(=O)Nc1ccc(COC(=O)OC(C(=O)OC2C[C@@]3(O)[C@@H](OC(=O)c4ccccc4)[C@H]4[C@](C)(C(=O)[C@H](O)C(=C2C)C3(C)C)[C@@H](O)CC2OC[C@]24OC(C)=O)[C@@H](NC(=O)OC(C)(C)C)c2ccccc2)cc1 (stereo partly shown) [Compound B1]
inhibitory rate on tumor (Day 26) [2, 12]: 84.46%
inhibitory rate on tumor (Day 26) [3, 12]: 86.67%
inhibitory rate on tumor (Day 26) [4, 12]: 74.67%
inhibitory rate on tumor (Day 26) [5, 12]: 74.56%
inhibitory rate on tumor (Day 26) (Human liver cancer Hepg2; [12]): 81.56%
inhibitory rate on tumor (Day 26) [6, 12]: 73.56%
inhibitory rate on tumor (Day 26) [7, 12]: 72.56%

COCCOCC(=O)N[C@H](C)C(=O)N[C@H](C)C(=O)N[C@H](CC(N)=O)C(=O)Nc1ccc(COC(=O)OC(C(=O)OC2C[C@@]3(O)[C@@H](OC(=O)c4ccccc4)[C@H]4[C@](C)(C(=O)[C@H](O)C(=C2C)C3(C)C)[C@@H](O)CC2OC[C@]24OC(C)=O)[C@@H](NC(=O)OC(C)(C)C)c2ccccc2)cc1 (stereo partly drawn) [Compound D1, 2-(2-methoxyethoxy) acetyl-L-Ala-L-Ala-L-Asn-4-amino benzyl-Docetaxel]
inhibitory rate on tumor (Day 26) [2, 13]: 94.6%
inhibitory rate on tumor (Day 26) [3, 13]: 87.7%
inhibitory rate on tumor (Day 26) [4, 13]: 82.9%
inhibitory rate on tumor (Day 26) [5, 13]: 90.4%
inhibitory rate on tumor (Day 26) (Human liver cancer Hepg2; [13]): 75.7%
inhibitory rate on tumor (Day 26) [6, 13]: 89.4%
inhibitory rate on tumor (Day 26) [7, 13]: 84.6%

CCCCCOC(=O)Nc1nc(=O)n([C@@H]2O[C@H](C)[C@@H](OC(=O)OCc3ccc(NC(=O)[C@H](CC(N)=O)NC(=O)[C@H](C)NC(=O)[C@H](C)NC(=O)CCCCCCC(=O)NO)cc3)[C@H]2O)cc1F [Compound S3, 4-N—(N—(N—(N-(8-(N-hydroxylamino)-1,8-octandioic acid-1-monoacyl)-L-alanyl)-L-alanyl)-L-asparaginyl)-amino benzyl alcohol-capecitabine-carbonic acid diester]
Size of tumor (mm^3) Day 10 [1, 8]: 85.67 ± 36.42 mm^3
Size of tumor (mm^3) Day 24 [1, 9]: 0 mm^3
Effect on tumor growth, in words [1]: strong inhibitory effect on tumor growth
Cytoxicity reduced (Multiple) (HEK293 cells): 78 Multiple

COc1cccc2c1C(=O)c1c(O)c3c(c(O)c1C2=O)C[C@@](O)(C(C)=O)C[C@@H]3O[C@H]1C[C@H](NC(=O)OCc2ccc(NC(=O)[C@H](CC(N)=O)NC(=O)[C@H](C)NC(=O)[C@H](C)NC(=O)CCCCCN3C(=O)C=CC3=O)cc2)[C@H](O)[C@H](C)O1 [Compound S5, 4-N—(N—(N—(N-(6-maleimidocaproyl)-L-alanyl)-L-alanyl)-L-asparaginyl)-amino benzyl alcohol-daunorubicin-carbamate]
Size of tumor (mm^3) Day 10 [1, 8]: 63.67 ± 46.64 mm^3
Size of tumor (mm^3) Day 24 [1, 9]: 46.45 ± 19.43 mm^3
Effect on tumor growth, in words [1]: strong inhibitory effect on tumor growth
Cytoxicity reduced (Multiple) (HEK293 cells): 125 Multiple
